The data set deals with human PKK mRNA. Kind of data set: Antisense inhibition of human PKK mRNA in HepaRG cells, 1,000 nM, MOE/deoxy/cEt oligonucleotides (Example 3). The data set is classed as cell-based. The essentials: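 HepaRG cells at 20,000 per well electroporated with 1,000 nM 16-mer MOE/cEt/deoxy gapmers (phosphorothioate, 5-methylcytosine). After about 24 h, PKK mRNA measured by qRT-PCR with primer probe set RTS3454, normalized to RIBOGREEN total RNA. Reported as percent inhibition versus untreated cells.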

Setting [1] is: Table 27, HepaRG cells, 1,000 nM antisense oligonucleotide, human PKK mRNA.
The mark [2] stands for this setting: HepaRG cells, 1,000 nM antisense oligonucleotide, Table 29.
[3] abbreviates: HepaRG cells, electroporation with 1,000 nM antisense oligonucleotide, approximately 24 hours, primer probe set RTS3454, relative to untreated control cells, experiment of Table 24.
The mark [4] stands for this setting: PKK mRNA, HepaRG cells, 1,000 nM antisense oligonucleotide, Table 31.
[5] abbreviates: Table 22 experiment, HepaRG cells, electroporation with 1,000 nM antisense oligonucleotide, approx. 24 hours, PKK mRNA by RT-PCR (RTS3454), relative to untreated control cells.
[6] abbreviates: HepaRG cells, electroporation with 1,000 nM antisense oligonucleotide, approx. 24 hours, PKK mRNA by RT-PCR (RTS3454), relative to untreated control cells, Table 25 experiment.
The mark [7] stands for this setting: Table 21 experiment, HepaRG cells, electroporation with 1,000 nM antisense oligonucleotide, approx. 24 hours, PKK mRNA by RT-PCR (RTS3454), relative to untreated control cells.
The mark [8] stands for this setting: Table 28, HepaRG cells, 1,000 nM antisense oligonucleotide, human PKK mRNA.
The mark [9] stands for this setting: Table 19, HepaRG cells, electroporation with 1,000 nM antisense oligonucleotide, approximately 24 hours, PKK mRNA by RT-PCR (RTS3454), relative to untreated control cells.
[10] abbreviates: HepaRG cells, electroporation with 1,000 nM antisense oligonucleotide, approx. 24 hours, PKK mRNA by RT-PCR (RTS3454), relative to untreated control cells, Table 26 experiment.
Where [11] appears, read: Table 30, human PKK mRNA, HepaRG cells, 1,000 nM antisense oligonucleotide.

Strand notation (5' to 3'): a small letter for the sugar, then the base; units joined by * are phosphorothioate-linked, units joined directly phosphodiester-linked; [ ] holds rarer units or linkages, { } end groups; capitals alone tell only the bases. e = 2'-O-(2-methoxyethyl) (MOE); k = constrained ethyl (cEt); [5mC] = 5-methylcytosine; d = 2'-deoxy (DNA)

In the case of “548331 (antisense eA*e[5mC]*kA*dA*dT*d[5mC]*d[5mC]*d[5mC]*dT*dT*dA*dG*d[5mC]*k[5mC]*k[5mC]*eA) [compound 548331]”, the “% inhibition” value under setting [1] was 73%.
Turning to “548541 (antisense eG*eG*k[5mC]*dA*d[5mC]*dT*dG*dG*dT*d[5mC]*dA*dT*dG*kG*kA*e[5mC]) [compound 548541]”, under setting [2], the “% inhibition” value was 39%.
For “548379 (eA*eT*k[5mC]*dG*dA*dA*d[5mC]*dT*d[5mC]*dT*dG*d[5mC]*dT*kT*kG*eA; antisense) [compound 548379]”, the “% inhibition” value under setting [1] was 44%.
Take “548590 (eT*eG*kG*dT*d[5mC]*dA*dT*dG*dT*d[5mC]*dA*dA*d[5mC]*kT*kG*eT; antisense) [compound 548590]”: the “% inhibition” value under setting [2] worked out at 35%.
With “548582 (eT*eA*kG*d[5mC]*dT*d[5mC]*d[5mC]*dA*dT*dG*d[5mC]*dT*dG*kT*kG*eT; antisense) [compound 548582]”, the “% inhibition” value under setting [2] is 59%.
Regarding “548059 (eT*eA*kG*dG*d[5mC]*dA*dT*dA*dT*dT*dG*dG*dT*kT*kT*eT; antisense) [compound 548059]”, the “% inhibition” value under setting [3] was 50%.
“547964 (antisense eG*eG*kT*dT*d[5mC]*dA*dG*dG*dT*dA*dA*dA*dG*kT*kT*e[5mC]) [compound 547964]”: the “% inhibition” value (HepaRG cells, electroporation with 1,000 nM antisense oligonucleotide, approximately 24 hours, primer probe set RTS3454, relative to untreated control cells, experiment of Table 23) turned out to be 0%.
For “548335 (antisense eT*eA*kG*d[5mC]*dA*dT*d[5mC]*dA*dT*dG*d[5mC]*d[5mC]*dA*k[5mC]*kA*eG) [compound 548335]”, the “% inhibition” value under setting [1] was 51%.
For the substance “548641 (antisense eG*e[5mC]*kA*dT*d[5mC]*dA*dT*dG*d[5mC]*dT*dT*dA*d[5mC]*kT*kG*e[5mC]) [compound 548641]”, the “% inhibition” value under setting [4] came out at 23%.
Consider “548646 (antisense e[5mC]*eG*kT*dT*dT*d[5mC]*d[5mC]*d[5mC]*dT*d[5mC]*dA*dA*d[5mC]*kT*k[5mC]*e[5mC]) [compound 548646]”, for which, under setting [4], the “% inhibition” value was 24%.
“547887 (e[5mC]*e[5mC]*kG*dG*dT*dA*d[5mC]*dT*d[5mC]*dT*dG*d[5mC]*d[5mC]*kT*kT*eG; antisense) [compound 547887]”: under setting [5], the “% inhibition” value is reported as 99%.
“548194 (eG*e[5mC]*k[5mC]*dA*dA*d[5mC]*dA*dG*dT*dT*dT*d[5mC]*dA*kA*k[5mC]*eT; antisense) [compound 548194]”: the “% inhibition” value under setting [6] was 61%.
As for “548040 (eG*eT*kG*dA*dG*dA*dA*dA*dG*dG*dT*dG*dT*kA*kT*e[5mC]; antisense) [compound 548040]”, the “% inhibition” value under setting [3] was 62%.
For “548011 (e[5mC]*e[5mC]*kA*dG*dT*dG*dT*dT*dA*d[5mC]*dA*d[5mC]*dA*kA*kT*e[5mC]; antisense) [compound 548011]”, the “% inhibition” value under setting [3] turned out to be 14%.
For “547811 (eA*e[5mC]*k[5mC]*dT*d[5mC]*dA*dT*d[5mC]*dT*dG*dG*d[5mC]*dA*kG*kT*eA; antisense) [compound 547811]”, under setting [7], the “% inhibition” value is 49%.
Turning to “547785 (antisense eG*eT*kT*dG*d[5mC]*dT*dT*dG*d[5mC]*dT*dT*dG*dA*kA*kT*eA) [compound 547785]”, the “% inhibition” value under setting [7] came out at 48%.
With “548632 (antisense eG*eG*kA*dG*dA*dT*dA*dT*d[5mC]*dA*dG*dG*dT*kG*k[5mC]*eA) [compound 548632]”, the “% inhibition” value under setting [4] is 45%.
On to “547759 (antisense eT*eG*kA*dG*dT*d[5mC]*dT*d[5mC]*dT*dT*dG*dT*d[5mC]*kA*k[5mC]*eT) [compound 547759]”, for which the “% inhibition” value under setting [7] stood at 73%.
With “548465 (e[5mC]*eT*kG*dT*dA*d[5mC]*d[5mC]*dT*dA*dT*dA*dA*d[5mC]*kT*kG*eT; antisense) [compound 548465]”, the “% inhibition” value under setting [8] is recorded as 0%.
Regarding “548664 (antisense eG*e[5mC]*kG*dG*dG*dT*dG*dG*dT*d[5mC]*dT*dT*dG*k[5mC]*kA*e[5mC]) [compound 548664]”, under setting [4], the “% inhibition” value was determined as 38%.
On to “548137 (eA*eG*kG*d[5mC]*dT*d[5mC]*dA*dG*dA*dA*dT*dT*dT*kG*kA*e[5mC]; antisense) [compound 548137]”, for which, under setting [9], the “% inhibition” value is on record as 62%.
In the case of “548299 (e[5mC]*eA*kT*dT*dG*dT*dG*d[5mC]*dT*d[5mC]*dA*dA*d[5mC]*kT*kG*eA; antisense) [compound 548299]”, the “% inhibition” value under setting [10] is recorded as 35%.
Take “548148 (eG*e[5mC]*kA*dG*d[5mC]*dT*d[5mC]*dT*dG*dA*dG*dT*dG*k[5mC]*kA*e[5mC]; antisense) [compound 548148]”: the “% inhibition” value under setting [9] was found to be 66%.
Take “548354 (antisense eA*eT*kG*dT*d[5mC]*d[5mC]*d[5mC]*d[5mC]*dA*dG*dT*dG*dG*kA*kA*eG) [compound 548354]”: the “% inhibition” value under setting [1] came out at 41%.
Regarding “548657 (antisense eA*eG*k[5mC]*dA*dG*dG*dG*dT*dA*dT*d[5mC]*dT*dT*k[5mC]*kA*e[5mC]) [compound 548657]”, the “% inhibition” value under setting [4] is listed as 26%.
Regarding “548457 (e[5mC]*eT*kA*dT*dA*dA*d[5mC]*dA*dG*dT*dA*dT*d[5mC]*kA*k[5mC]*e[5mC]; antisense) [compound 548457]”, the “% inhibition” value under setting [11] amounted to 13%.
As to “548671 (antisense e[5mC]*eA*kA*d[5mC]*dA*dA*dT*d[5mC]*d[5mC]*dA*dA*dA*dG*k[5mC]*k[5mC]*eT) [compound 548671]”, the “% inhibition” value under setting [4] worked out at 3%.
Turning to “548383 (eG*eT*k[5mC]*dT*d[5mC]*dG*dA*dT*dG*dG*d[5mC]*dA*dA*kG*k[5mC]*eT; antisense) [compound 548383]”, under setting [11], the “% inhibition” value is listed as 49%.
As for “548251 (antisense eG*e[5mC]*k[5mC]*dT*dT*dT*dG*dT*dG*dA*dT*dG*d[5mC]*kG*kA*eT) [compound 548251]”, the “% inhibition” value under setting [10] amounted to 13%.
On to “548178 (eG*eA*kG*dA*dT*d[5mC]*dT*d[5mC]*dA*dG*dT*dT*dG*k[5mC]*kG*eA; antisense) [compound 548178]”, for which the “% inhibition” value under setting [6] is given as 54%.
On to “547916 (e[5mC]*e[5mC]*kT*dG*dG*d[5mC]*dA*dA*d[5mC]*dA*dT*d[5mC]*d[5mC]*kA*k[5mC]*eA; antisense) [compound 547916]”, for which the “% inhibition” value is reported as 70% (Table 20, HepaRG cells, electroporation with 1,000 nM antisense oligonucleotide, approximately 24 hours, PKK mRNA by RT-PCR (RTS3454), relative to untreated control cells) and 56% under setting [5].
In the case of “548017 (e[5mC]*eA*kA*dG*dA*dA*dG*dA*dG*dT*dT*dT*dG*kT*kT*e[5mC]; antisense) [compound 548017]”, under setting [3], the “% inhibition” value worked out at 3%.
As for “548626 (antisense eG*e[5mC]*kA*dG*dT*dA*dT*dG*dT*dT*d[5mC]*dA*dA*kT*k[5mC]*e[5mC]) [compound 548626]”, the “% inhibition” value under setting [4] was 36%.
In the case of “548584 (eT*eG*kA*dT*dG*dA*dA*dG*dT*dT*d[5mC]*d[5mC]*dA*k[5mC]*k[5mC]*eT; antisense) [compound 548584]”, the “% inhibition” value under setting [2] was found to be 47%.
For the substance “548518 (antisense e[5mC]*eA*k[5mC]*dA*d[5mC]*dT*dT*dA*d[5mC]*d[5mC]*d[5mC]*d[5mC]*dG*k[5mC]*kT*e[5mC]) [compound 548518]”, the “% inhibition” value under setting [8] was 12%.
Take “548039 (eG*eA*kA*dA*dG*dG*dT*dG*dT*dA*dT*d[5mC]*dT*kT*kT*eT; antisense) [compound 548039]”: under setting [3], the “% inhibition” value amounted to 29%.
Regarding “548058 (eG*e[5mC]*kA*dT*dA*dT*dT*dG*dG*dT*dT*dT*dT*kT*kG*eG; antisense) [compound 548058]”, under setting [3], the “% inhibition” value turned out to be 71%.

The values are drawn from US11840686B2, “Modulation of prekallikrein (PKK) expression” (Ionis Pharmaceuticals, Inc., priority 2013, dated 2023).
